# Experimental data reported in patent US10921312B2 (priority 2014, dated 2021).
# Entries after “also recorded” stand apart in the source; their conditions may differ.
# What was measured:
# [1] = test system: iCell® neurons (human induced pluripotent stem cell-derived neurons); type: cell-based
# Neuro2A cells = type: cell-based
substance,measurement,setting,value
GT1b,increase of sensitivity to neurotoxin polypeptide,[1],~7 fold
same,increase in sensitivity to neurotoxin,Neuro2A cells,did not exhibit a comparable increase in sensitivity; also recorded: no increase in sensitivity
